From patent US5770759A, “Prostaglandins of the F series” (priority 1987, dated 1998)

What was measured:
blood pressure = assay: Change in blood pressure in anesthetized rats (Experiment 1); format: in vivo, Male Wister rat; conditions: for Change in Blood Pressure (%): 1 mg/kg into tail vein, anesthetized rat, average of 5 data per group; for Blood Pressure: Table 2, class symbols
Method: Male Wister rat (8-week old) was anesthetized by intraperitoneally administering urethane (1.25 g/kg). Polyethylene tube was inserted into femoral artery and connected with a pressure transducer to measure blood pressure.
The test drugs were dissolved in ethanol, diluted with Ringer's solution before use and a dose of 1 mg/kg was administered into tale vein. The maximum concentration of ethanol was 2%. As reference, ethanol-Ringer's solution without containing test drugs was used and the effect was checked in each experiment without failing. The rate of change in blood pressure (%) was determined by average of 5 data per group.

mouse = assay: Acute toxicity upon oral administration (Experiment 6); format: in vivo, Male Slc-ddY mouse; conditions: mouse (5 weeks old)
Description: Using Male Slc-ddY mouse (5 weeks old), acute toxicity upon oral administration (LD50) was examined.

pulse = system: pulse; parameters: species or system Male Wister rat; conditions: rat, in vivo
Method: Male Wister rat (8-week old) was anesthetized by intraperitoneally administering urethane (1.25 g/kg). A tachometer was operated by R wave of electrocardiogram of exterminal derivation. The effect of the tested 15-keto-PGEs on pulse is evaluated by the value calucurated from the following formula: [formula]

Compound	Change in Blood Pressure (%) (blood pressure)	other results
13,14-dihydro-15-keto-9β,11α-PGF2 methyl ester [Test Drug 3]	+5%	–
13,14-dihydro-15-keto-16,16-dimethyl-PGF2 α ethyl ester [Test Drug 4]	+7%	–
13,14-dihydro-15-keto-16-desbutyl-16-m-trifluoromethylphenoxy-PGF2 α methyl ester [Test Drug 23]	+5%	–
13,14-dihydro-15-keto-16R,S-fluoro-11R-dehydroxy-11R-methyl-PGF2 α methyl ester [Test Drug 8]	+44%	–
13,14-dihydro-15-keto-16R,S-fluoro-PGF2 α [Test Drug 5]	+7%	–
13,14-dihydro-15-keto-16R,S-fluoro-PGF2 α methyl ester [Test Drug 6]	+18%	–
13,14-dihydro-15-keto-17S-methyl-PGF2 α ethyl ester [Test Drug 13]	+18%	–
13,14-dihydro-15-keto-20-ethyl-11R-dehydroxy-11R-methyl-PGF2 α methyl ester [Example 15]	+7%	–
13,14-dihydro-15-keto-20-ethyl-16R,S-fluoro-11R-dehydroxy-11R-methyl-PGF2 α methyl ester [Test Drug 12]	+13%	–
13,14-dihydro-15-keto-20-ethyl-16R,S-fluoro-PGF2 α [Test Drug 10]	+35%	–
13,14-dihydro-15-keto-20-ethyl-16R,S-fluoro-PGF2 α methyl ester [Test Drug 11]	+8%	–
13,14-dihydro-15-keto-20-ethyl-PGF1 α methyl ester [Test Drug 25]	+32%	–
13,14-dihydro-15-keto-20-ethyl-PGF2 α [Test Drug 15]	+24%	–
13,14-dihydro-15-keto-20-ethyl-PGF2 α ethyl ester [Test Drug 17]	+20%	–
13,14-dihydro-15-keto-20-ethyl-PGF2 α isopropyl ester [Test Drug 18]	+16%	LD50 (oral) (mouse): > 2000 mg/kg; Blood Pressure (blood pressure; rat): .uparw. (increase more than 10%)
13,14-dihydro-15-keto-20-ethyl-PGF2 α methyl ester [Test Drug 16]	+26%	LD50 (oral) (mouse): > 2000 mg/kg; Blood Pressure (blood pressure; rat): .uparw. (increase more than 10%)
13,14-dihydro-15-keto-20-ethyl-PGF2 α n-butyl ester [Test Drug 19]	+8%	–
13,14-dihydro-15-keto-20-methoxy-PGF2 α methyl ester [Example 9]	+41%	–
13,14-dihydro-15-keto-20-methyl-PGF2 α methyl ester [Test Drug 14]	+10%	–
13,14-dihydro-15-keto-20-n-butyl-PGF2 α methyl ester [Test Drug 22]	+14%	–
13,14-dihydro-15-keto-PGF1 α ethyl ester [Test Drug 24]	+27%	–
13,14-dihydro-15-keto-PGF2 α methyl ester [Test Drug 1]	+14%	Blood Pressure (blood pressure; rat): .uparw. (increase more than 10%)
CCCCC[C@H](O)/C=C/[C@@H]1[C@@H](C/C=C\CCCC(=O)O)[C@@H](O)C[C@H]1O [PGF2 α, (Z)-7-[(1R,2R,3R,5S)-3,5-dihydroxy-2-{(E)-(3S)-3-hydroxy-1-octenyl}-cyclopentyl]-5-heptenoic acid, reference compound]	–	Pulse (pulse): .dwnarw. → .uparw.; effect on pulse (in words) (pulse): ephemeral decrease in pulse; Blood Pressure (blood pressure; rat): .dwnarw. → .uparw.; effect on blood pressure (in words) (blood pressure; rat): ephemeral decrease in pulse as well as blood pressure
CCCCCC(=O)CC[C@@H]1[C@@H](C/C=C\CCCC(=O)OCC)[C@@H](O)C[C@H]1O [Test Drug 2, 13,14-dihydro-15-keto-PGF2 α ethyl ester]	+17%	–
CCCCCCCCC(=O)CC[C@@H]1[C@@H](C/C=C\CCCC(=O)OC)[C@@H](O)C[C@H]1O [Test Drug 21, 13,14-dihydro-15-keto-20-n-propyl-PGF2 α methyl ester]	+16%	–
CCCCCC(=O)CC[C@@H]1[C@@H](C/C=C\CCCC(=O)OC)[C@@H](O)C[C@H]1O [compound 1]	+12%	–
